Reference: article PMC10587151, “Ligand activation mechanisms of human KCNQ2 channel” (Nature Communications, 2023)
Counter-ions that a name gives are not always drawn. Like-named read-outs stand apart in the source and are kept apart here.

How the values were obtained:
KCNQ2 [1] = target: T1, KCNQ2 (Homo sapiens, UniProt O43526, F104A); test: cryo-EM structure ([…] Å), open state, with one CBD co-bound; type: binding
T1 construct: residues 64–674; with calmodulin (CaM)

KCNQ2 [2] = target: T2, KCNQ2 (Homo sapiens, UniProt O43526); test: cryo-EM structure ([…] Å), with CBD co-bound; design: residues 64–674; with calmodulin (CaM)
KCNQ2 [3] = target: T2, KCNQ2; test: cryo-EM structure ([…] Å); whole-cell patch clamp in CHO cells for the EC50; type: cell-based; design: residues 64–674; with calmodulin (CaM)
KCNQ2 [4] = target: T1, KCNQ2; test: cryo-EM structure ([…] Å), closed state; type: binding
KCNQ2 [5] = target: T2, KCNQ2; test: cryo-EM structure ([…] Å); whole-cell patch clamp in CHO cells for the EC50; type: cell-based; design: wild-type human KCNQ2 cDNA in pcDNA5/FRT, expressed in CHO cells, whole-cell patch clamp; no CaM co-transfection stated; not the 64-674 cryo-EM construct
Target sequence in this assay (O43526 whole entry, the tested form may be a part): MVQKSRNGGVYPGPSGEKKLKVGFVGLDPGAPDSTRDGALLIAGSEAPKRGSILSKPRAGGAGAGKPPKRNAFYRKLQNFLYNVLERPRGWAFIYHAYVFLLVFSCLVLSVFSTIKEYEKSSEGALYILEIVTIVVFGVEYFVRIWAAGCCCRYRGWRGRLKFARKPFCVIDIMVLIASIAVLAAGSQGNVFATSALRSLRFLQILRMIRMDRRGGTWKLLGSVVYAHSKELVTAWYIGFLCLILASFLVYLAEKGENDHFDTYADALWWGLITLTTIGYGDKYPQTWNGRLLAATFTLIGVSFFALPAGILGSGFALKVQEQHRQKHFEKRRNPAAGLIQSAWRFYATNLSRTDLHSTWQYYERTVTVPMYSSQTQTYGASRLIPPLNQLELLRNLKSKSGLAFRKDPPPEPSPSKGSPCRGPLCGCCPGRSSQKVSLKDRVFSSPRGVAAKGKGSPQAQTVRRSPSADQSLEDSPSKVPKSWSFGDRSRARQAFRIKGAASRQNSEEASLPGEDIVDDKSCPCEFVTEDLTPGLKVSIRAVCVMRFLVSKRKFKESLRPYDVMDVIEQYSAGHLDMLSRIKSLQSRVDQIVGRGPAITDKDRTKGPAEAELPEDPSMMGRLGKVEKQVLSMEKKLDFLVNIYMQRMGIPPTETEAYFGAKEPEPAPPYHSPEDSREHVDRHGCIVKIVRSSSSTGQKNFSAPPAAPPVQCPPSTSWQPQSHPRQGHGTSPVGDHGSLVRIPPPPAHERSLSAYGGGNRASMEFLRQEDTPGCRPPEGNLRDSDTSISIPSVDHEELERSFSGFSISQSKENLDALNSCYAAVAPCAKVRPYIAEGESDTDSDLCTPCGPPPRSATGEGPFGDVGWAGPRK

[6] = target: the molecule itself; test: cryo-EM structure; KCNQ2 (strep tag) and CaM (His tag) co-expressed in HEK293S, complex purified on Strep-Tactin and Superose 6 in 20 mM Tris pH 8.0, 150 mM KCl, 0.02% GDN; incubated with 0.25 mM CBD, 0.15 mM HN37 and/or 1 mM PIP2; C4 symmetry; closed and open states

T1 sequence (O43526 64-674 F104A): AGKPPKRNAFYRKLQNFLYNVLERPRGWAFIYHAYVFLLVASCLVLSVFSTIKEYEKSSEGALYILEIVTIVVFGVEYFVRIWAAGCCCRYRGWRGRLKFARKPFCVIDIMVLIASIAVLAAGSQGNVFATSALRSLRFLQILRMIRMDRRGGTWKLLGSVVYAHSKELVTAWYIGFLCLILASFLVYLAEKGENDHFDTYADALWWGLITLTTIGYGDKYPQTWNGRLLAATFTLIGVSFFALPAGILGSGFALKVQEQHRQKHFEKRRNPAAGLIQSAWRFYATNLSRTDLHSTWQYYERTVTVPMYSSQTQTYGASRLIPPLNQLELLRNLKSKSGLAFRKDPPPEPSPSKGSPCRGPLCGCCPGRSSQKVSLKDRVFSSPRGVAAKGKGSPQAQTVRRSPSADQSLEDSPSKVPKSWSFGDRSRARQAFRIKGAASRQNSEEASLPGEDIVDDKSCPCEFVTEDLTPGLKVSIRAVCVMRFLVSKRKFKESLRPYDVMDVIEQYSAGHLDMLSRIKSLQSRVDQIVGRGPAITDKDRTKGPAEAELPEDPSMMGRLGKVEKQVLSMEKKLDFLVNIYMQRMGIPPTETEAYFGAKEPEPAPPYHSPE

CCCCCCCC(=O)OC[C@H](COP(=O)(O)O[C@@H]1[C@H](O)[C@H](O)[C@@H](OP(=O)(O)O)[C@H](OP(=O)(O)O)[C@H]1O)OC(=O)CCCCCCC [PIP2, 1,2-dioctanoyl-sn-glycero-3-phospho-(1’-myo-inositol-4’,5’-bisphosphate) (ammonium salt)]
cryo-EM structure (3.5 Å), open state, with one CBD co-bound (KCNQ2 [1]): KCNQ2-CaMF104A-CBD-PIP2-II is in an open state with the PIP2 bound | cryo-EM structure (3.1 Å), with CBD co-bound (KCNQ2 [2]): between VSD and PD, one PIP2 molecule is assigned, with its fatty acid chains switched by S1III/S4III and S5II

C#CCN(Cc1ccc(F)cc1)c1cc(C)c(NC(=O)OC)c(C)c1 [HN37]
EC50 (KCNQ2 [3]): 0.0285 ± 0.00299 µM

C=C(C)[C@@H]1CCC(C)=C[C@H]1c1c(O)cc(CCCCC)cc1O [CBD, cannabidiol]
cryo-EM structure (2.7 Å), closed state (KCNQ2 [4]): In both maps, CBDA molecules maintain strong densities but those for CBDB are barely observed | EC50 (KCNQ2 [5]): 4.5 ± 1.79 µM

B1: human KCNQ2 (residues 64-674, C-terminal strep tag) (domain or fragment, UniProt O43526-1 64-674, looked up)
chain: AGKPPKRNAFYRKLQNFLYNVLERPRGWAFIYHAYVFLLVFSCLVLSVFSTIKEYEKSSEGALYILEIVTIVVFGVEYFVRIWAAGCCCRYRGWRGRLKFARKPFCVIDIMVLIASIAVLAAGSQGNVFATSALRSLRFLQILRMIRMDRRGGTWKLLGSVVYAHSKELVTAWYIGFLCLILASFLVYLAEKGENDHFDTYADALWWGLITLTTIGYGDKYPQTWNGRLLAATFTLIGVSFFALPAGILGSGFALKVQEQHRQKHFEKRRNPAAGLIQSAWRFYATNLSRTDLHSTWQYYERTVTVPMYSSQTQTYGASRLIPPLNQLELLRNLKSKSGLAFRKDPPPEPSPSKGSPCRGPLCGCCPGRSSQKVSLKDRVFSSPRGVAAKGKGSPQAQTVRRSPSADQSLEDSPSKVPKSWSFGDRSRARQAFRIKGAASRQNSEEASLPGEDIVDDKSCPCEFVTEDLTPGLKVSIRAVCVMRFLVSKRKFKESLRPYDVMDVIEQYSAGHLDMLSRIKSLQSRVDQIVGRGPAITDKDRTKGPAEAELPEDPSMMGRLGKVEKQVLSMEKKLDFLVNIYMQRMGIPPTETEAYFGAKEPEPAPPYHSPE
notes: Human voltage-gated potassium channel KCNQ2, N- and C-terminal regions truncated, residues 64-674; numbers count on: NP_004509.2; The vector is a modified pEZT-BM; also called WT KCNQ2; KCNQ2 of the KCNQ2-CaM complex; source: HEK293S suspension cells, BacMam baculovirus, co-expressed with CaM, purified (Strep-Tactin, Superose 6); not shown: strep tag, C-terminal, kept
stoichiometry N [6]: 4
